Results as given in patent US20140093525A1, “COMPOSITIONS AND METHODS OF TREATING OPIOID ADDICTION” (Minneapolis Medical Research Foundation, priority 2012, published 2014).
Like-named read-outs stand apart in the source and are kept apart here. Where a SMILES comes first, the peptide text is derived from it. The star is where a group is joined. X1 = COc1ccc2c3c1OC1C(=NOCC(=O)*)CCC4(O)C(C2)N(C)CCC314

Assays:
[1] = system: Anti-OXY antibodies; experiment: Competitive ELISA of serum from animals immunized with OXY(Gly)4-KLH, OXY(Gly)4-OVA as coating antigen; format: binding, rat
Procedure: Because plateau values differed, IC50 values for each inhibitor were calculated based on the percentage of inhibition of the optical density of primary antibodies incubated with saline.

[2] = system: serum antibodies elicited by M-KLH; experiment: Competition ELISA of serum from rats vaccinated with M-KLH
[3] = system: serum antibodies elicited by OXY-KLH; experiment: Competition ELISA of serum from rats vaccinated with OXY-KLH
[4] = system: Male Holtzman rats; experiment: Example 4: drug distribution studies (OXY in serum and brain); format: in vivo, rat; conditions: pre-treatment with 0.003 mg/kg NLTX; 2.25 mg/kg OXY s.c.
Procedure: Plasma and brain collected at 33 min after behavioral assessment on the hot plate, and measured using gas chromatography coupled to mass spectrometry.

[5] = system: Male Holtzman rats; experiment: Example 4: thermal nociception (hot plate) after OXY, naltrexone and OXY-KLH vaccine; format: in vivo, rat
Procedure: Male Holtzman rats immunized once every 3 weeks for a total of 3 injections i.p., with 25 μg immunogen in Freund's adjuvant.
Significant differences existed between saline pretreated control rats and rats receiving NLTX. For pharmacokinetic experiments NLTX dose of 0.003 mg/kg was chosen based on MPE %. *p<0.05.

[6] = relative to OXY, OXY(Gly)4-OVA as ELISA coating antigen

| Compound | Cross-Reactivity (%) [1] | IC50 [1] | affinity, competition or binding to antibodies (in words) [1] | relative affinity of antiserum / cross-reactivity (in words) [2] | relative affinity of antiserum / cross-reactivity (in words) [3] | other results |
| --- | --- | --- | --- | --- | --- | --- |
| COc1ccc2c3c1O[C@H]1C(=O)CC[C@H]4[C@@H](C2)N(C)CC[C@]314 [Hydrocodone] | 0.2% | 10000 nM | substantially lower | relatively low IC50 values | relatively low IC50 values |  |
| CCC(=O)C(CC(C)N(C)C)(c1ccccc1)c1ccccc1 (stereo not drawn) [Methadone] |  |  | no measurable binding |  |  |  |
| CN1CC[C@]23c4c5ccc(O)c4O[C@H]2[C@@H](O)C=C[C@H]3[C@H]1C5 [Morphine] | 0.1% |  | substantially lower |  |  |  |
| C=CCN1CC[C@]23c4c5ccc(O)c4O[C@H]2C(=O)CC[C@@]3(O)[C@H]1C5 [Naloxone] |  |  |  |  |  | affinity, competition or binding to antibodies (in words) ([1]; competitive ELISA, serum from OXY(Gly)4-KLH immunized animals): substantially lower; Cross-Reactivity (%) [1, 6]: 1.2% |
| O=C1CC[C@@]2(O)[C@H]3Cc4ccc(O)c5c4[C@@]2(CCN3CC2CC2)[C@H]1O5 [Naltrexone] |  |  | substantially lower |  |  | effect on distribution of OXY in immunized rats (in words) [4]: does not alter the distribution of OXY; IC50 ([1]; competitive binding, OXY(Gly)4-OVA as ELISA coating antigen): 5000 nM; Cross-Reactivity (%) [1, 6]: 0.4%; effect on acute behavioral effects of OXY, thermal nociception (in words) ([5]; NLTX 0.001-0.01 mg/kg s.c. 15 min prior to 2.25 mg/kg OXY): dose-dependently blocks; effect on behavioral tolerance to OXY (in words) ([5]; repeated OXY administration): unable to block the effects of tolerance |
| COc1ccc2c3c1OC1C(=NOCC(=O)NCC(=O)NCC(=O)NCC(=O)NCC(=O)O)CCC4(O)C(C2)N(C)CCC314 (stereo not drawn) [OXY(Gly)4] (X1-GGGG-OH) | >100% | 3 nM | high affinities |  |  |  |
| COc1ccc2c3c1O[C@H]1C(=O)CC[C@@]4(O)[C@@H](C2)N(C)CC[C@]314 [OXY, Oxycodone] | 100% | 17 nM | high affinities |  |  |  |
| CN1CC[C@]23c4c5ccc(O)c4O[C@H]2C(=O)CC[C@@]3(O)[C@H]1C5 [Oxymorphone] | 63% | 30 nM |  |  | high relative affinities |  |
| CC(=O)Oc1ccc2c3c1O[C@H]1[C@@H](OC(C)=O)C=C[C@H]4[C@@H](C2)N(C)CC[C@@]341 [heroin] |  |  |  | high relative affinities | low relative affinity |  |
| tetraglycine [(Gly)4] |  |  | no measurable competition or binding | negligible | negligible cross-reactivity |  |
